In article PMC9270327 (Communications Biology, 2022):
Where “and” joins values, the source holds several entries; their conditions need not be identical. Equal values may be shown once. Read-outs that look alike come from different tables or passages of the source.

What was measured:
TMPRSS2 [1] = target: T1, TMPRSS2 (Homo sapiens, UniProt O15393)
Protocol: Negative ctrl: no inhibitor, positive ctrl: inhibitor in assay buffer. d Inhibitory constants Ki as determined from (a–c). Shown are the means ± SD of n = 1 experiment performed in triplicates. No inh. no inhibition.
(§1) The activity of the compounds against the recombinant human enzymes was determined in enzyme inhibition assays. […] The measurements were performed on a Tecan infinite® M1000 and the fluorescence intensity was measured by exciting the AMC fluorophore at 380 nm wavelength and recording emission at 460 nm wavelength. […] Fluorescence intensities and absorption were measured every 2 min for 2 h or as endpoint after 2 h. […] To determine the IC50 values, the concentration-response data were plotted with the program GraphPad prism version 8.4.2 (San Diego, California) and a nonlinear regression fit with the equation [Inhibitor] vs. normalized response was applied. The inhibitory constant Ki was calculated from the IC50 values using the Cheng–Prusoff equation (Ki = IC50/[S]/KM) for competitive reversible inhibitors[66].
(§2) The stability of the inhibitors was measured according to a modified procedure from ref. [67]. […] At indicated timepoints, 100 µL samples were taken and mixed with 200 µL of ethanol to precipitate proteins. […] The supernatant was aspirated and analyzed using analytical HPLC. The residual inhibitory constants Ki after incubation was assessed by mixing serial dilutions of the inhibitor with recombinant TMPRSS2 as described above.

[2] = system: lentiviral pseudoparticles carrying SARS-CoV-2 Omicron BA.1 (B.1.1.529) spike, Caco-2 cells; type: cell-based
TMPRSS2 [3] = target: T1, TMPRSS2; test: Cell culture medium stability: residual TMPRSS2 inhibition after incubation in medium
Protocol: as §1, §2
were mixed with recombinant TMPRSS2, followed by the addition of the fluorogenic reference
Shown are the means ± SD of n=1 experiment performed in triplicates.

[4] = system: lentiviral pseudoparticles carrying SARS-CoV-2 Delta (B.1.617.2) spike, Caco-2 cells; type: cell-based; settings: for SARS-CoV-2 spike driven entry, Mean (0 nM = 100): Fig. 5d
[5] = inhibitor 1.665 nM, positive ctrl
[6] = inhibitor 16.65 nM, positive ctrl
[7] = inhibitor 166.5 nM, positive ctrl
[8] = inhibitor 1665 nM, positive ctrl

T1 sequence (O15393 whole entry): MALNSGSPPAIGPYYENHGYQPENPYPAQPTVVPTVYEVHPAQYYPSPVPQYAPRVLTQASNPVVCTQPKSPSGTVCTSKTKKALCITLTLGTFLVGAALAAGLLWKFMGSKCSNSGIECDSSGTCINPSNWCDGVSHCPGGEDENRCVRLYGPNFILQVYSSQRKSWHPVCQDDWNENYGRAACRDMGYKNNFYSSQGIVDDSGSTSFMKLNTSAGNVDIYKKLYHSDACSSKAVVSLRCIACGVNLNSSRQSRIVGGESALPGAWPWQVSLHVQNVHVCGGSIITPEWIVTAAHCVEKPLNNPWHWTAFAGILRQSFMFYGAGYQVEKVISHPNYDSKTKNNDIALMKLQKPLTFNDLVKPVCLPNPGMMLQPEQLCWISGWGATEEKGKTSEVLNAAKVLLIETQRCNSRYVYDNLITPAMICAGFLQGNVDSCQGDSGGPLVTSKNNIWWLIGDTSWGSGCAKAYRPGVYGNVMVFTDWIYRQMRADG

Substance: ace-Arg-Pro-Arg-kbt [Compound 2]
- TMPRSS2 activity, Mean (0 nM = 100) (TMPRSS2 [1]; [5]): 91.5051
- TMPRSS2 activity, Mean (0 nM = 100) (TMPRSS2 [1]; inhibitor 16.65 nM, 0 min in serum): 98.1805
- TMPRSS2 activity, Mean (0 nM = 100) (TMPRSS2 [1]; inhibitor 16.65 nM, 30 min in serum): 91.6522
- TMPRSS2 activity, Mean (0 nM = 100) (TMPRSS2 [1]; inhibitor 16.65 nM, 60 min in serum): 87.0886
- TMPRSS2 activity, Mean (0 nM = 100) (TMPRSS2 [1]; inhibitor 16.65 nM, 120 min in serum): 89.1234
- TMPRSS2 activity, Mean (0 nM = 100) (TMPRSS2 [1]; inhibitor 16.65 nM, 24 h in serum): 89.0776
- TMPRSS2 activity, Mean (0 nM = 100) (TMPRSS2 [1]; inhibitor 16.65 nM, 10 d in serum): 93.1155
- TMPRSS2 activity, Mean (0 nM = 100) (TMPRSS2 [1]; [6]): 59.7913
- TMPRSS2 activity, Mean (0 nM = 100) (TMPRSS2 [1]; inhibitor 166.5 nM, 0 min in serum): 41.7125
- TMPRSS2 activity, Mean (0 nM = 100) (TMPRSS2 [1]; inhibitor 166.5 nM, 30 min in serum): 36.7343
- TMPRSS2 activity, Mean (0 nM = 100) (TMPRSS2 [1]; inhibitor 166.5 nM, 60 min in serum): 32.5087
- TMPRSS2 activity, Mean (0 nM = 100) (TMPRSS2 [1]; inhibitor 166.5 nM, 120 min in serum): 34.3878
- TMPRSS2 activity, Mean (0 nM = 100) (TMPRSS2 [1]; inhibitor 166.5 nM, 24 h in serum): 36.8130
- TMPRSS2 activity, Mean (0 nM = 100) (TMPRSS2 [1]; inhibitor 166.5 nM, 10 d in serum): 52.5195
- TMPRSS2 activity, Mean (0 nM = 100) (TMPRSS2 [1]; [7]): 21.7311
- TMPRSS2 activity, Mean (0 nM = 100) (TMPRSS2 [1]; inhibitor 1665 nM, 0 min in serum): 8.0842
- TMPRSS2 activity, Mean (0 nM = 100) (TMPRSS2 [1]; inhibitor 1665 nM, 30 min in serum): 8.9275
- TMPRSS2 activity, Mean (0 nM = 100) (TMPRSS2 [1]; inhibitor 1665 nM, 60 min in serum): 5.1862
- TMPRSS2 activity, Mean (0 nM = 100) (TMPRSS2 [1]; inhibitor 1665 nM, 120 min in serum): 6.5663
- TMPRSS2 activity, Mean (0 nM = 100) (TMPRSS2 [1]; inhibitor 1665 nM, 24 h in serum): 7.0802
- TMPRSS2 activity, Mean (0 nM = 100) (TMPRSS2 [1]; inhibitor 1665 nM, 10 d in serum): 12.0706
- TMPRSS2 activity, Mean (0 nM = 100) (TMPRSS2 [1]; [8]): 5.8217
- SARS-CoV-2 spike driven entry, Mean (0 nM = 100) [2]: 80.0549 and 94.4227 and 98.8201
- IC50 ([2]; Caco-2 cells, luciferase 2 days post transduction, read-out: IC50 pseudotyped lentivirus Omicron BA.1): 0.431 µM
- SARS-CoV-2 spike driven entry, Mean (0 nM = 100) ([2]; Fig. 5e, compound 400 nM, […]): 52.4269
- SARS-CoV-2 spike driven entry, Mean (0 nM = 100) ([2]; Fig. 5e, compound 2000 nM, […]): 20.742
- SARS-CoV-2 spike driven entry, Mean (0 nM = 100) ([2]; Fig. 5e, compound 10000 nM, […]): 5.628
- SARS-CoV-2 spike driven entry, Mean (0 nM = 100) ([2]; Fig. 5e, compound 50000 nM, […]): 3.26
- Residual TMPRSS2 activity, Mean (0 nM = 100) (TMPRSS2 [3]; inhibitor 0.0167 nM, 0 min in cell culture medium): 98.9717
- Residual TMPRSS2 activity, Mean (0 nM = 100) (TMPRSS2 [3]; inhibitor 0.0167 nM, 30 min in cell culture medium): 101.323
- Residual TMPRSS2 activity, Mean (0 nM = 100) (TMPRSS2 [3]; inhibitor 0.0167 nM, 60 min in cell culture medium): 96.8723
- Residual TMPRSS2 activity, Mean (0 nM = 100) (TMPRSS2 [3]; inhibitor 0.0167 nM, 120 min in cell culture medium): 98.5343
- Residual TMPRSS2 activity, Mean (0 nM = 100) (TMPRSS2 [3]; inhibitor 0.0167 nM, 24 h in cell culture medium): 98.1961
- Residual TMPRSS2 activity, Mean (0 nM = 100) (TMPRSS2 [3]; inhibitor 0.0167 nM, 10 d in cell culture medium): 98.4437
- Residual TMPRSS2 activity, Mean (0 nM = 100) (TMPRSS2 [3]; inhibitor 0.0167 nM, positive ctrl): 97.6368
- Residual TMPRSS2 activity, Mean (0 nM = 100) (TMPRSS2 [3]; inhibitor 0.167 nM, 0 min in cell culture medium): 100.63
- Residual TMPRSS2 activity, Mean (0 nM = 100) (TMPRSS2 [3]; inhibitor 0.167 nM, 30 min in cell culture medium): 100.761
- Residual TMPRSS2 activity, Mean (0 nM = 100) (TMPRSS2 [3]; inhibitor 0.167 nM, 60 min in cell culture medium): 103.84
- Residual TMPRSS2 activity, Mean (0 nM = 100) (TMPRSS2 [3]; inhibitor 0.167 nM, 120 min in cell culture medium): 96.4654
- Residual TMPRSS2 activity, Mean (0 nM = 100) (TMPRSS2 [3]; inhibitor 0.167 nM, 24 h in cell culture medium): 97.7945
- Residual TMPRSS2 activity, Mean (0 nM = 100) (TMPRSS2 [3]; inhibitor 0.167 nM, 10 d in cell culture medium): 101.036
- Residual TMPRSS2 activity, Mean (0 nM = 100) (TMPRSS2 [3]; inhibitor 0.167 nM, positive ctrl): 98.5654
- Residual TMPRSS2 activity, Mean (0 nM = 100) (TMPRSS2 [3]; inhibitor 1.665 nM, 0 min in cell culture medium): 97.2536
- Residual TMPRSS2 activity, Mean (0 nM = 100) (TMPRSS2 [3]; inhibitor 1.665 nM, 30 min in cell culture medium): 96.1305
- Residual TMPRSS2 activity, Mean (0 nM = 100) (TMPRSS2 [3]; inhibitor 1.665 nM, 60 min in cell culture medium): 95.956
- Residual TMPRSS2 activity, Mean (0 nM = 100) (TMPRSS2 [3]; inhibitor 1.665 nM, 120 min in cell culture medium): 95.462
- Residual TMPRSS2 activity, Mean (0 nM = 100) (TMPRSS2 [3]; inhibitor 1.665 nM, 24 h in cell culture medium): 97.8646
- Residual TMPRSS2 activity, Mean (0 nM = 100) (TMPRSS2 [3]; inhibitor 1.665 nM, 10 d in cell culture medium): 97.0442
- Residual TMPRSS2 activity, Mean (0 nM = 100) (TMPRSS2 [3]; [5]): 88.6541
- Residual TMPRSS2 activity, Mean (0 nM = 100) (TMPRSS2 [3]; inhibitor 16.65 nM, 0 min in cell culture medium): 83.5545
- Residual TMPRSS2 activity, Mean (0 nM = 100) (TMPRSS2 [3]; inhibitor 16.65 nM, 30 min in cell culture medium): 80.8705
- Residual TMPRSS2 activity, Mean (0 nM = 100) (TMPRSS2 [3]; inhibitor 16.65 nM, 60 min in cell culture medium): 72.3193
- Residual TMPRSS2 activity, Mean (0 nM = 100) (TMPRSS2 [3]; inhibitor 16.65 nM, 120 min in cell culture medium): 83.5842
- Residual TMPRSS2 activity, Mean (0 nM = 100) (TMPRSS2 [3]; inhibitor 16.65 nM, 24 h in cell culture medium): 87.4426
- Residual TMPRSS2 activity, Mean (0 nM = 100) (TMPRSS2 [3]; inhibitor 16.65 nM, 10 d in cell culture medium): 88.0057
- Residual TMPRSS2 activity, Mean (0 nM = 100) (TMPRSS2 [3]; [6]): 59.7774
- Residual TMPRSS2 activity, Mean (0 nM = 100) (TMPRSS2 [3]; inhibitor 166.5 nM, 0 min in cell culture medium): 18.9266
- Residual TMPRSS2 activity, Mean (0 nM = 100) (TMPRSS2 [3]; inhibitor 166.5 nM, 30 min in cell culture medium): 17.6545
- Residual TMPRSS2 activity, Mean (0 nM = 100) (TMPRSS2 [3]; inhibitor 166.5 nM, 60 min in cell culture medium): 24.0301
- Residual TMPRSS2 activity, Mean (0 nM = 100) (TMPRSS2 [3]; inhibitor 166.5 nM, 120 min in cell culture medium): 22.2899
- Residual TMPRSS2 activity, Mean (0 nM = 100) (TMPRSS2 [3]; inhibitor 166.5 nM, 24 h in cell culture medium): 22.0487
- Residual TMPRSS2 activity, Mean (0 nM = 100) (TMPRSS2 [3]; inhibitor 166.5 nM, 10 d in cell culture medium): 39.6688
- Residual TMPRSS2 activity, Mean (0 nM = 100) (TMPRSS2 [3]; [7]): 18.9416
- Residual TMPRSS2 activity, Mean (0 nM = 100) (TMPRSS2 [3]; inhibitor 1665 nM, 0 min in cell culture medium): -1.499
- Residual TMPRSS2 activity, Mean (0 nM = 100) (TMPRSS2 [3]; inhibitor 1665 nM, 30 min in cell culture medium): 5.536
- Residual TMPRSS2 activity, Mean (0 nM = 100) (TMPRSS2 [3]; inhibitor 1665 nM, 60 min in cell culture medium): 0.2889
- Residual TMPRSS2 activity, Mean (0 nM = 100) (TMPRSS2 [3]; inhibitor 1665 nM, 120 min in cell culture medium): -1.86
- Residual TMPRSS2 activity, Mean (0 nM = 100) (TMPRSS2 [3]; inhibitor 1665 nM, 24 h in cell culture medium): -0.886
- Residual TMPRSS2 activity, Mean (0 nM = 100) (TMPRSS2 [3]; inhibitor 1665 nM, 10 d in cell culture medium): 10.1282
- Residual TMPRSS2 activity, Mean (0 nM = 100) (TMPRSS2 [3]; [8]): 0.02381
- IC50 ([4]; Caco-2 cells, luciferase 2 days post transduction, read-out: IC50 pseudotyped lentivirus Delta): 0.627 µM
- SARS-CoV-2 spike driven entry, Mean (0 nM = 100) ([4]; compound 3.2 nM): 94.6384
- SARS-CoV-2 spike driven entry, Mean (0 nM = 100) ([4]; compound 16 nM): 93.9983
- SARS-CoV-2 spike driven entry, Mean (0 nM = 100) ([4]; compound 80 nM): 82.6624
- SARS-CoV-2 spike driven entry, Mean (0 nM = 100) ([4]; compound 400 nM): 60.9224
- SARS-CoV-2 spike driven entry, Mean (0 nM = 100) ([4]; compound 2000 nM): 29.6704
- SARS-CoV-2 spike driven entry, Mean (0 nM = 100) ([4]; compound 10000 nM): 4.245
- SARS-CoV-2 spike driven entry, Mean (0 nM = 100) ([4]; compound 50000 nM): 0.86
